Measurements taken from PMC7413074 (Journal of pharmacy & pharmaceutical sciences : a …, 2019).
Like-named read-outs stand apart in the source and are kept apart here.

Tests used:
[1] = test system: medulloblastoma/primitive neuroectodermal tumor (cell line JRMB-6); conditions: single agent, 130 mg/kg IP daily for five consecutive days; cited from earlier work
in vitro = conditions: CD1, mouse, plasma
in vivo [2] = conditions: female, CD1-nude, mouse, ip, 130 mg/kg
in vivo [3] = conditions: CD1-nude, mouse, Kp,uu (unbound ECF to plasma partition coefficient), mean (SD)
[4] = CD1-nude, mouse
[5] = female, CD1-nude, mouse, in vivo
[6] = humans; cited from earlier work

O=P1(N(CCCl)CCCl)NCCCO1 (stereo not drawn) [cyclophosphamide]
Response rate [1]: 85% | Survival versus saline controls [1]: statistically improved survival | fraction unbound (in vitro): 0.26 | AUC (in vivo [2]): 113 µM·h | Kp uu (in vivo [3]): 0.22 | AUCECF,0-5h (unbound brain ECF exposure), mean (SD) ([4]; in vivo): 6.3 (1.3) μM·h | AUCECF,0-5h (unbound tumor ECF exposure), mean (SD) ([4]; in vivo): 4.0 (1.4) μM·h | AUCECF,0-5h (unbound tumor or brain ECF exposure), mean (SD) ([4]; in vivo): 5.2 (1.8) μM·h | Influx clearance CLin, estimate (RSE%) ([4]; in vivo): 4.3·10^−4 (16) L/h/kg | Inter-individual variability, influx clearance η-CLin, estimate (RSE%) ([4]; in vivo): 0.31 (51) | Proportional residual variability εprop, estimate (RSE%) ([4]; in vivo): 0.45 (12) | Efflux clearance CLef, estimate (RSE%) ([4]; not told): 2.4·10^−3 (7.0) L/h/kg | Inter-individual variability, efflux clearance η-CLef, estimate (RSE%) ([4]; not told): 0.23 (22) | Central clearance CL, estimate (RSE%) [5]: 4.4 (3.7) L/h/kg | Central volume V, estimate (RSE%) [5]: 0.65 (5.0) L/kg | Inter-individual variability, central clearance η-CL, estimate (RSE%) [5]: 0.11 (17) | Peripheral clearance Q, estimate (RSE%) [5]: 0.18 (4.3) L/h/kg | Peripheral volume Vp, estimate (RSE%) [5]: 0.062 (2.6) L/kg | Proportional residual variability εprop, estimate (RSE%) [5]: 0.24 (11) | Mean observed maximum concentrations ([5]; ip, 130 mg/kg): 352.9 µM | FU (fraction unbound) [6]: 7-17%
